Results published in patent US20190030036A1, “PHOSPHODIESTERASE INHIBITOR TREATMENT” (Cyrano Therapeutics, Inc., priority 2013, published 2019).
Marks after values point to notes of the source that are not given here.

Test system: patients with hyposmia
Assay: Smell function (DT, RT, ME, H) by forced-choice, three-stimuli, stepwise-staircase technique with four odors; open trial of oral theophylline
Type: in vivo, human
Text: Patients initially reported their sensory dysfunction as either loss of taste (e.g., flavor) and/or smell function. This subjective response was documented by objective psychophysical measurements of olfactory function administered to each patient by use of a forced-choice, three-stimuli, stepwise-staircase technique in a fixed, controlled design (1, 53). Efficacy of this technique and results of testing were previously documented in a double-blind clinical trial (53). Four odors were used; they were pyridine (dead-fish odor), nitrobenzene (bitter-almond odor), thiophene (petroleum-like odor) and amyl acetate (banana-oil odor). Detection thresholds (DT), recognition thresholds (RT) and magnitude estimation (ME) values for each odor were determined as previously described (1, 53). Thresholds were converted into bottle units (BU) as previously described (53) and results reported as M±SEM of correct responses for each odor in each treatment group; ME was reported in % and results calculated to obtain M±SEM for each treatment group for all correct responses using data for the four highest odor concentrations presented (from 10^−2M—an absolute odor concentration).
In addition, each patient graded the hedonic (H) value of each odor presented for these same odor concentrations (from 10^−2M—an absolute odor concentration using a −100−0−+100 scale). […] Results were obtained by calculating the arithmetical sum of each correct recognition response for each odor with respect to its pleasantness, unpleasantness or neutrality. Arithmetic M±SEM were obtained for each treatment group for each odor presented.
After determination of hyposmia, patients were treated in an open label, fixed design, controlled open trial. Patients were given an oral extended release theophylline in divided daily doses taken in the middle of breakfast and lunch. All patients were initially given 200 mg of theophylline; changes in this dose were made based upon subjective responses to therapy. If at a subsequent return visit, patients reported ≥5% subjective improvement in overall smell function, they continued on this same dose of theophylline and were reevaluated after four to six months of continued treatment. Results from any subsequent return from these improved patients were not included in any subsequent data report. All subsequent comparisons between treated and untreated patients were made only between those patients continuing in the study compared to their own measurements obtained in the untreated state. If patients reported <5% subjective improvement, their theophylline dose was increased by 200 mg daily and they were scheduled for retesting at the study site after two to four months at this new dosage. For patients that reported <5% improvement, this sequence continued until patients reached 800 mg of theophylline, at which time the study was considered completed.
Patients returned for reevaluation after two to four months of treatment. Measurements of blood serum theophylline were measured by a fluorescence polarization assay (Abbott, Chicago, Ill.). At this time, subjective changes in smell function were measured independently (compared to patient's memory of previous normal smell function monitored by use of the patients' daily measurements) using the scale from −100−0-+100 previously described. After independently recording their subjective responses, smell function was measured for all four odors with DT, RT, ME and H determined without recourse to prior measurements.
Since data for all measurements from each patient group (local or distant) on each dose level were combined mean and SEM for each measurement (DT, RT, ME, H) of smell function for each treatment group were calculated on this basis. Differences in measurements between before treatment and each treatment level were calculated and significance of differences estimated using Student t tests (values p<0.05 considered significant). […]

[1] = pyridine, oral theophylline 200 mg
[2] = pyridine, oral theophylline 200 mg daily, all patients (199)
[3] = pyridine, oral theophylline 200 mg, Type I hyposmia (57)
[4] = pyridine, oral theophylline 200 mg, Type II hyposmia (138)
[5] = pyridine, oral theophylline 200 mg, Type III hyposmia (4)
[6] = pyridine, oral theophylline 400 mg
[7] = pyridine, oral theophylline 400 mg daily, all patients (120)
[8] = pyridine, oral theophylline 400 mg, Type I hyposmia (33)
[9] = pyridine, oral theophylline 400 mg, Type II hyposmia (85)
[10] = pyridine, oral theophylline 400 mg, Type III hyposmia (2)
[11] = pyridine, oral theophylline 600 mg daily, all patients (160)
[12] = pyridine, oral theophylline 600 mg, Type I hyposmia (51)
[13] = pyridine, oral theophylline 600 mg, Type II hyposmia (105)
[14] = pyridine, oral theophylline 600 mg, Type III hyposmia (4)
[15] = pyridine, oral theophylline 800 mg daily, all patients (28)
[16] = pyridine, oral theophylline 800 mg, Type I hyposmia (12)
[17] = pyridine, oral theophylline 800 mg, Type II hyposmia (16)
[18] = thiophene, oral theophylline 200 mg
[19] = thiophene, oral theophylline 200 mg daily, all patients (199)
[20] = thiophene, oral theophylline 200 mg, Type I hyposmia (57)
[21] = thiophene, oral theophylline 200 mg, Type II hyposmia (138)
[22] = thiophene, oral theophylline 200 mg, Type III hyposmia (4)
[23] = thiophene, oral theophylline 400 mg
[24] = thiophene, oral theophylline 400 mg daily, all patients (120)
[25] = thiophene, oral theophylline 400 mg, Type I hyposmia (33)
[26] = thiophene, oral theophylline 400 mg, Type II hyposmia (85)
[27] = thiophene, oral theophylline 400 mg, Type III hyposmia (2)
[28] = thiophene, oral theophylline 600 mg daily, all patients (160)
[29] = thiophene, oral theophylline 600 mg, Type I hyposmia (51)
[30] = thiophene, oral theophylline 600 mg, Type II hyposmia (105)
[31] = thiophene, oral theophylline 600 mg, Type III hyposmia (4)
[32] = thiophene, oral theophylline 800 mg daily, all patients (28)
[33] = thiophene, oral theophylline 800 mg, Type I hyposmia (12)
[34] = thiophene, oral theophylline 800 mg, Type II hyposmia (16)

## Cn1c(=O)c2[nH]cnc2n(C)c1=O [theophylline]
Oral theophylline 600 mg
  total mean increase of ME for all odors: 6.9%
Oral theophylline 800 mg daily
  decrease of H for pyridine: 55%
  decrease of H for thiophene: 37%
  increase of H for amyl acetate: about 50%
  increase of H for nitrobenzene: about 50%
[1]
  decrease of H values: 2%
  increase of ME values: 6%
[2]
  DT, detection threshold: 7.6 ± 0.2^a BU
  H, hedonic estimation: −22 ± 2^a %
  ME, magnitude estimation: 28 ± 2^a %
  RT, recognition threshold: 9.0 ± 0.2^a BU
[3]
  DT, detection threshold: 9.5 ± 0.2^ BU
  H, hedonic value: −8 ± 2^a %
  ME, magnitude estimation: 11 ± 2^a %
  RT, recognition threshold: 11.0 ± 0.2^a BU
[4]
  DT, detection threshold: 6.9 ± 0.2^ BU
  H, hedonic value: −28 ± 2^ %
  ME, magnitude estimation: 35 ± 2^ %
  RT, recognition threshold: 8.2 ± 0.2^a BU
[5]
  DT, detection threshold: 4.0 ± 0.6 BU
  H, hedonic value: −40 ± 13%
  ME, magnitude estimation: 45 ± 11%
  RT, recognition threshold: 5.2 ± 0.5 BU
[6]
  ME increases: 12%
  increases in H values: 9%
[7]
  DT, detection threshold: 7.0 ± 0.3^c BU
  H, hedonic estimation: −26 ± 3^b %
  ME, magnitude estimation: 33 ± 3^a %
  RT, recognition threshold: 8.5 ± 0.3^a BU
[8]
  DT, detection threshold: 8.8 ± 0.5^ BU
  H, hedonic value: −7 ± 3^a %
  ME, magnitude estimation: 12 ± 3^a %
  RT, recognition threshold: 10.6 ± 0.4^ BU
[9]
  DT, detection threshold: 6.3 ± 0.3^a BU
  H, hedonic value: −34 ± 3^ %
  ME, magnitude estimation: 41 ± 3^a %
  RT, recognition threshold: 7.7 ± 0.3^a BU
[10]
  DT, detection threshold: 5.0 BU
  H, hedonic value: −40%
  ME, magnitude estimation: 45%
  RT, recognition threshold: 5.0 BU
[11]
  DT, detection threshold: 7.4 ± 0.2^c BU
  H, hedonic estimation: −19 ± 2^ %
  ME, magnitude estimation: 26 ± 2^d %
  RT, recognition threshold: 9.4 ± 0.2^c BU
[12]
  DT, detection threshold: 8.9 ± 0.3^b BU
  H, hedonic value: −8 ± 2^a %
  ME, magnitude estimation: 11 ± 3^a %
  RT, recognition threshold: 10.9 ± 0.3^ BU
[13]
  DT, detection threshold: 6.7 ± 0.3^a BU
  H, hedonic value: −25 ± 3^ %
  ME, magnitude estimation: 33 ± 2^ %
  RT, recognition threshold: 8.9 ± 0.3^ BU
[14]
  DT, detection threshold: 3.8 ± 0.9 BU
  H, hedonic value: −26 ± 22%
  ME, magnitude estimation: 41 ± 15%
  RT, recognition threshold: 5.5 ± 0.9 BU
[15]
  DT, detection threshold: 6.9 ± 0.6 BU
  H, hedonic estimation: −22 ± 6%
  ME, magnitude estimation: 29 ± 5%
  RT, recognition threshold: 8.5 ± 0.6^c BU
[16]
  DT, detection threshold: 9.6 ± 0.8^ BU
  H, hedonic value: −11 ± 5^a %
  ME, magnitude estimation: 10 ± 4^a %
  RT, recognition threshold: 10.3 ± 1.0^ BU
[17]
  DT, detection threshold: 4.7 ± 0.7^a BU
  H, hedonic value: −31 ± 9^ %
  ME, magnitude estimation: 43 ± 5^c %
  RT, recognition threshold: 7.1 ± 0.7^a BU
[18]
  decrease of H values: 2%
  increase of ME values: 5%
[19]
  DT, detection threshold: 7.5 ± 0.2^c BU
  H, hedonic estimation: −15 ± 2^d %
  ME, magnitude estimation: 21 ± 2 ^ %
  RT, recognition threshold: 9.1 ± 0.2^c BU
[20]
  DT, detection threshold: 10.1 ± 0.3^d BU
  H, hedonic value: −3 ± 2^a %
  ME, magnitude estimation: 6 ± 2^a %
  RT, recognition threshold: 11.4 ± 0.2^ BU
[21]
  DT, detection threshold: 6.5 ± 0.3^ BU
  H, hedonic value: −19 ± 2^ %
  ME, magnitude estimation: 27 ± 2^ %
  RT, recognition threshold: 8.2 ± 0.3^a BU
[22]
  DT, detection threshold: 3.2 ± 0.8 BU
  H, hedonic value: −40 ± 18%
  ME, magnitude estimation: 47 ± 15%
  RT, recognition threshold: 3.8 ± 0.6 BU
[23]
  ME increases: 12%
  increases in H values: 7%
[24]
  DT, detection threshold: 6.8 ± 0.4^c BU
  H, hedonic estimation: −19 ± 2^d %
  ME, magnitude estimation: 26 ± 2^c %
  RT, recognition threshold: 8.4 ± 0.3^a BU
[25]
  DT, detection threshold: 9.8 ± 0.5^a BU
  H, hedonic value: −5 ± 2^a %
  ME, magnitude estimation: 7 ± 2^a %
  RT, recognition threshold: 10.8 ± 0.4^ BU
[26]
  DT, detection threshold: 5.7 ± 0.4^ BU
  H, hedonic value: −23 ± 3^ %
  ME, magnitude estimation: 31 ± 3^ %
  RT, recognition threshold: 7.6 ± 0.4^a BU
[27]
  DT, detection threshold: 1 BU
  H, hedonic value: −99%
  ME, magnitude estimation: 99%
  RT, recognition threshold: 1 BU
[28]
  DT, detection threshold: 7.1 ± 0.3^a BU
  H, hedonic estimation: −14 ± 2 ^ %
  ME, magnitude estimation: 21 ± 2^d %
  RT, recognition threshold: 9.0 ± 0.3^c BU
[29]
  DT, detection threshold: 9.4 ± 0.4^a BU
  H, hedonic value: −3 ± 2^a %
  ME, magnitude estimation: 7 ± 2^a %
  RT, recognition threshold: 10.9 ± 0.3^d BU
[30]
  DT, detection threshold: 6.1 ± 0.3^a BU
  H, hedonic value: −20 ± 2^ %
  ME, magnitude estimation: 27 ± 2^ %
  RT, recognition threshold: 8.1 ± 0.3^a BU
[31]
  DT, detection threshold: 2.0 ± 1.0 BU
  H, hedonic value: −35 ± 24%
  ME, magnitude estimation: 42 ± 20%
  RT, recognition threshold: 3.8 ± 0.9 BU
[32]
  DT, detection threshold: 7.2 ± 0.7 BU
  H, hedonic estimation: −15 ± 4%
  ME, magnitude estimation: 20 ± 4%
  RT, recognition threshold: 9.6 ± 0.6 BU
[33]
  DT, detection threshold: 10.0 ± 0.7^ BU
  H, hedonic value: −4 ± 2^a %
  ME, magnitude estimation: 4 ± 2^a %
  RT, recognition threshold: 11.6 ± 0.2^ BU
[34]
  DT, detection threshold: 4.9 ± 0.7^a BU
  H, hedonic value: −24 ± 8^ %
  ME, magnitude estimation: 33 ± 6^ %
  RT, recognition threshold: 8.0 ± 1.0^ BU
